Laboratory results: patent US6095147A, “Method for photo-altering a biological system to improve biological effect” (The Regents of the University of California, priority 1994, dated 2000)

What was measured:
[1] = system: conjunctiva; test: Posterior lip sclerectomy (filtration surgery) with preoperative SnET2 injection and postoperative laser irradiation; assay type: in vivo, rabbit; details: 665 nm, 100 mW/cm^2
Protocol: (§1) Pharmacokinetics of the photosensitive agent or tin ethyl-etiopurpurin (SnET2) were studied after subconjunctival injections (0,25,50,75 ug; 11 rabbits). Noninvasive measurements were made at 0, 0.5, 1, 2, 3 and 4 hr postinjection using a HeCd based laser fluorescence diagnostic system (excitation-442 nm; detection-670 nm SnET2 fluorescence; tissue autofluorescense-570 nm). SnET2 uptake was determined by an elevated 670/570 nm ratio. Preoperative injections (0, 25, 50 and 75 ug; 8 rabbits) of SnET2 were given and posterior lip sclerectomies were performed after 3-4 hrs followed by post operative laser irradiation (665 nm; 100 mW/cm^2; 30 J/cm^2). […] Self absorption of the fluorescence was present in the higher doses for the conjunctiva. Fluorescence ratios (T=3 hr) were as follows. The fluorescence ratios are shown below in Table 2. The tissue ratios were: conjunctiva/iris: 0 (control)=1.2; 25 ug=63+/-17; 50 ug=54+/-31; 75 ug=4+/-1.2. Conjunctiva/optical axis: 0 (control)=1.4; 25 ug=109+/-37; 50 ug=78+/-10; 75 ug=11+/-2.5.
Some of the animals of the group shown in Table 2 and 3 were treated with 665 nanometers laser light at 100 milliwatt per square centimeter (30 Joules per square centimeter) exposure with 8 millimeter diameter spot three to four hours after the injection of the SnET2 following filtering surgery in the eye.

[2] = Noninvasive laser fluorescence (HeCd) measurement of SnET2 uptake and distribution in ocular tissues after subconjunctival injection; assay type: in vivo, rabbit; details: for Axis Fluorescence Ratio (670 nm/570 nm) / Conjunctiva Fluorescence Ratio (670 nm/570 nm) / Iris Fluorescence Ratio (670 nm/570 nm) / Ratio of Fluorescence (Conjuctiva/Axis) / Ratio of Fluorescence (Conjuctiva/Iris): 3 hr
Protocol: as §1
Noninvasive fluorescent measurements, using a HeCd laser, was made of the SnET2 to determine its uptake and distribution. Exposure of SnET2 with a HeCd laser, excites the tissue at 442 nanometers and detects 670 nanometer florescence for SnET2 and 570 nanometer for tissue autofluorescence. The higher the ratio (670 nm/570 nm), the higher the uptake. Measurements in the conjunctiva compared to the iris and of the conjunctiva as compared to the axis of the eye, namely the pupil, were compared three hours after injection. […] In this case the self-absorption of the 670 nm fluorescence by the SnET2 at such a high local concentration causes the intensity to actually decrease. […] This is also due to self-absorption. Note that for the iris and axis readings the signal does continue to increase with increasing injected dose due to the greater leakage into these areas of the eye with the higher injected doses. This is a negative, unwanted effect and is why the ratios of the conjuntiva/iris and conjuntiva/axis ratios decrease in Table 3. […] The decreased tissue ratios at the higher photosensitizer injection doses indicate lower specificity due to greater leakage from the injection site.

[3] = 25 μg subconjunctival, 3 animals
[4] = 50 μg subconjunctival, 3 animals
[5] = 75 μg subconjunctival, 5 animals

With `CCOC(=O)C1=Cc2c3nc(cc4nc(cc5[n-]c(cc6[n-]c2c(C)c6CC)c(C)c5CC)C(C)=C4CC)[C@@H](C)[C@]13CC.[Cl-].[Cl-].[Sn]` (racemic) [SnET2, tin ethyl-etiopurpurin] as the compound, how does the “overall effect of photodynamic therapy on conjunctiva” value ([1]; 30 J/cm^2) read?
Its value is “titratable, localized, transient, post operative avascular conjunctiva”.

And the “avascular conjunctiva, post operative” value ([1]; SnET2 25, 50, 75 ug, 30 J/cm^2, 3-4 hrs after injection)?
Its value is “large transient areas of avascular conjunctiva were produced”.

What about the “limitation of avascular areas to filtering blebs” value ([1]; at 4 weeks, 30 J/cm^2) of the same compound?
The value was “limitation of avascular areas to filtering blebs at 4 weeks”.

What about the “Axis Fluorescence Ratio (670 nm/570 nm)” value [2, 3] of the same compound?
Its value is 0.26 +/- 0.03.

And the “Conjunctiva Fluorescence Ratio (670 nm/570 nm)” value (from here on “Conjunctiva Fluorescence Ratio”) [2, 3]?
The value was 28.27 +/- 10.90.

What about the “Iris Fluorescence Ratio (670 nm/570 nm)” value [2, 3] of the same compound?
The value was 0.44 +/- 0.08.

And the “Ratio of Fluorescence (Conjuctiva/Axis)” value [2, 3]?
The value was 109+/-37.

And the “Ratio of Fluorescence (Conjuctiva/Iris)” value [2, 3]?
The value was 63+/-17.

And the “Axis Fluorescence Ratio (670 nm/570 nm)” value [2, 4]?
The value was 0.37 +/- 0.05.

And the “Conjunctiva Fluorescence Ratio” value [2, 4]?
The value was 31.70 +/- 8.60.

What about the “Iris Fluorescence Ratio (670 nm/570 nm)” value [2, 4] of the same compound?
Its value is 0.65 +/- 0.21.

And the “Ratio of Fluorescence (Conjuctiva/Axis)” value [2, 4]?
The value was 78+/-10.

And the “Ratio of Fluorescence (Conjuctiva/Iris)” value [2, 4]?
Its value is 54+/-31.

And the “Axis Fluorescence Ratio (670 nm/570 nm)” value [2, 5]?
The value was 1.30 +/- 0.90.

What about the “Iris Fluorescence Ratio (670 nm/570 nm)” value [2, 5] of the same compound?
Its value is 4.72 +/- 4.94.

And the “Ratio of Fluorescence (Conjuctiva/Axis)” value [2, 5]?
Its value is 11 +/- 2.5.

What about the “Ratio of Fluorescence (Conjuctiva/Iris)” value [2, 5] of the same compound?
The value was 4 +/- 1.2.

And the “Conjunctiva Fluorescence Ratio” value ([2]; 75 μg subconjunctival, 5 animals, self-absorption of fluorescence)?
The value was 15.14 +/- 13.60.

What about the “levels in the iris and optical axis” value ([2]; subconjunctival injection) of the same compound?
Its value is “small, but detectable levels”.

And the “time of peak conjunctival fluorescence post injection” value ([2]; subconjunctival injection)?
Its value is 3 h.

And the “uptake and retention at the injection site (conjunctiva)” value ([2]; subconjunctival injection)?
Its value is “preferentially taken up and preferentially remains in the area of the injection, namely the conjunctiva”.
